Patent US20240294522A1 (Lead Discovery Center GmbH, priority 2021, published 2024)

What was measured:
GRK2 = biological target: T1, GRK2 (Homo sapiens, UniProt P25098); assay: Lance Kinase Activity Assay, GRK2; details: biochemical Lance kinase activity assay; class symbols A-F; read-out: GRK2 LANCE Assay (IC-50)
T1 construct: purchased Thermo Scientific
T1 sequence (P25098 1-689): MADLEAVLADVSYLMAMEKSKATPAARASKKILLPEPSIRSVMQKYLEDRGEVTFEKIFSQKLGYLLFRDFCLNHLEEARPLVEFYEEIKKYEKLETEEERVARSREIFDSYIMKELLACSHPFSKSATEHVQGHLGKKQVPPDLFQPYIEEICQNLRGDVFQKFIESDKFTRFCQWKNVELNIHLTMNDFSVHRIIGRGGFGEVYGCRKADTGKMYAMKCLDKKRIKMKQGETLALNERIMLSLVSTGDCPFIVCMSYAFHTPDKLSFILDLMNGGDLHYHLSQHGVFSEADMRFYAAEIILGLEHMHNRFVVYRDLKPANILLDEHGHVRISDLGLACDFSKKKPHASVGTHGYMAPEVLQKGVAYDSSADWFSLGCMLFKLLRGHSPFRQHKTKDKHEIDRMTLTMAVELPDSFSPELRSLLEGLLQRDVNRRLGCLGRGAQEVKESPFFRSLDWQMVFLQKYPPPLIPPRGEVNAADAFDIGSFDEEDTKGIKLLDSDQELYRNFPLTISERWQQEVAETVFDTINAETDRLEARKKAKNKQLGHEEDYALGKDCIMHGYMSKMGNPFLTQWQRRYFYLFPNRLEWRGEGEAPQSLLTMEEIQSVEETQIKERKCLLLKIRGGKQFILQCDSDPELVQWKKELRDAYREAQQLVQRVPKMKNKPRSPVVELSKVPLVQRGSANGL
Protocol: (§1) This protocol describes how the Lance Kinase Activity Assay was performed to determine IC50 values of compounds of general formula (I) against GRK5 and GRK2.
(§2) The principle behind this enzymatic assay is based upon the phosphorylation of the Ulight-peptide substrate. It is detected by using a specific EU-labeled anti-phospho peptide antibody. The binding of the Eu labeled anti-phospho peptide antibody to the phosphorylated ULight labeled peptide gives rise to a FRET-signal. Binding of an inhibitor to the kinase prevents phosphorylation of the Ulight-substrate, resulting in a loss of FRET. In tables 2 and 3 the relevant information for these two LANCE assays is summarized.
(§3) For every sample, 2 μl of assay buffer (50 mM HEPES pH 7,5, 10 mM MgCL2, 1 mM EGTA 0,01% Tween 20, 1% DMSO, 2 mM DTT) were transferred into a suitable assay plate (e.g. Corning #3673). Compounds were added in a concentration range from 10 μM to 0.0025 μM using an acoustic dispenser (Echo520 from Labcycte, San Jose, USA) equipped with Echo Dose Response software. After that 6 μl of kinase-substrate mix was added. Reaction was started by addition of 2 μl ATP working solution and mixed using a Bioshake 5000 microplate shaker (Q Instruments, Jena, Germany).
(§4) After 1 h incubation at room temperature the reaction was stopped with 10 μl detection mix containing the Eu-labeled phosphospecific antibody and 10 mM EDTA. After a second incubation period of 1 h at room temperature the FRET signal was measured at 340 nm excitation, 665 nm and 615 nm emission (for the ULight-substrate and Eu-AB, respectively) with an Envision microplate reader (Perkin Elmer, Waltham, MA, USA) with 50 μs delay and 300 μs integration time. IC50 values were determined from the sigmoidal dose response curves with the software Quattro Workflow (Quattro GmbH, Munich, Germany).
(§5) Inhibition is indicated as IC50 [nM] (“−”=not measured). Compounds having an activity designated as “A” provided an IC50≤50 nM; compounds having an activity designated as “B” provided an 50 nM<IC50≤100 nM; compounds having an activity designated as “C” provided an 100 nM<IC50≤500 nM; compounds having an activity designated as “D” provided an 500 nM<IC50≤1000 nM; compounds having an activity designated as “E” provided an 1000 nM<IC50≤10000 nM; and compounds having an activity designated as “F” provided an IC50>10000 nM.

GRK5 = biological target: T2, GRK5 (Homo sapiens, UniProt P34947); assay: Lance Kinase Activity Assay, GRK5; details: biochemical Lance kinase activity assay; class symbols A-F; read-out: GRK5 LANCE Assay (IC-50)
T2 construct: purchased Thermo Scientific
Protocol: as §1, §2, §3, §4, §5

T2 sequence (P34947 whole entry): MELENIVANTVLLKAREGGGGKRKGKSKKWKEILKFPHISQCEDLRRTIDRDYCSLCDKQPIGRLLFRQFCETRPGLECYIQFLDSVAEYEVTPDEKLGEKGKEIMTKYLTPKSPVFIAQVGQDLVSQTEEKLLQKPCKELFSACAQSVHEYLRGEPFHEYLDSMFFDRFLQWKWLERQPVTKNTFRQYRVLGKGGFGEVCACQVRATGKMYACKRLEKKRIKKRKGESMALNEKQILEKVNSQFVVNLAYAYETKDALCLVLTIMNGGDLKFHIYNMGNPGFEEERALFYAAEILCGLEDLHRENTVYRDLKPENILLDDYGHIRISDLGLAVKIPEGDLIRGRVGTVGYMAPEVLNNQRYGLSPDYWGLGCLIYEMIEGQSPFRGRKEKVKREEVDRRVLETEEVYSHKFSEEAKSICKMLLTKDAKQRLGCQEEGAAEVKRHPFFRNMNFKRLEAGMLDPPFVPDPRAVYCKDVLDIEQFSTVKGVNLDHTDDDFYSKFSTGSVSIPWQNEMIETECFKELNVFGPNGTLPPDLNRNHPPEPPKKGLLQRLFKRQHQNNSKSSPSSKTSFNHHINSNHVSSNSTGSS

IC50 (GRK2) | IC50 (GRK5) | SMILES
1 to 10 µM | ≤ 50 nM | COc1ccc([C@@H](C)NC(=O)/C=C/c2c[nH]c3ncc(-c4cn(C)nc4C)cc23)cc1OC [Example 212, (R,E)-N-(1-(3,4-dimethoxyphenyl)ethyl)-3-(5-(1,3-dimethyl-1H-pyrazol-4-yl)-1H-pyrrolo[2,3-b]pyridin-3-yl)acrylamide]
1 to 10 µM | ≤ 50 nM | COc1ccc([C@@H](C)NC(=O)/C=C/c2c[nH]c3ncc(-c4ccc(C(N)=O)cc4)cc23)cc1OC [Example 200, (R,E)-4-(3-(3-((1-(3,4-dimethoxyphenyl)ethyl)amino)-3-oxoprop-1-en-1-yl)-1H-pyrrolo[2,3-b]pyridin-5-yl)benzamide]
0.5 to 1 µM | ≤ 50 nM | COc1ccc([C@@H](C)NC(=O)/C=C/c2c[nH]c3ncc(-c4cnn(C)c4C#N)cc23)cc1OC [Example 211, (R,E)-3-(5-(5-cyano-1-methyl-1H-pyrazol-4-yl)-1H-pyrrolo[2,3-b]pyridin-3-yl)-N-(1-(3,4-dimethoxyphenyl)ethyl)acrylamide]
> 10 µM | ≤ 50 nM | COc1ccc([C@@H](C)NC(=O)/C=C/c2c[nH]c3ncc(-c4cccc(CN5CCN(C)CC5)c4)cc23)cc1OC [Example 183]
> 10 µM | 100 to 500 nM | COc1ccc([C@@H](C)NC(=O)/C=C/c2c[nH]c3nccc(-c4ccc(CN(C)C)cc4)c23)cc1OC [Example 223, (R,E)-N-(1-(3,4-dimethoxyphenyl)ethyl)-3-(4-(4-((dimethylamino)methyl)phenyl)-1H-pyrrolo[2,3-b]pyridin-3-yl)acrylamide]
1 to 10 µM | ≤ 50 nM | COc1ccc([C@@H](C)NC(=O)/C=C/c2c[nH]c3ncc(-c4cccc(NS(C)(=O)=O)c4)cc23)cc1OC [Example 193]
> 10 µM | 50 to 100 nM | COc1ccc([C@@H](C)NC(=O)/C=C/c2c[nH]c3ncc(-c4ccc(CN(C)C)cc4)cc23)cc1OC [Example 184]
> 10 µM | 50 to 100 nM | COc1ccc([C@@H](C)NC(=O)/C=C/c2c[nH]c3ncc(OCCN(C)C)cc23)cc1OC [Example 56, (R,E)-N-(1-(3,4-dimethoxyphenyl)ethyl)-3-(5-(2-(dimethylamino)ethoxy)-1H-pyrrolo[2,3-b]pyridin-3-yl)acrylamide]
> 10 µM | 500 to 1000 nM | CC[S+]([O-])c1cccc(-c2ccnc3[nH]cc(/C=C/C(=O)N[C@H](C)c4ccc(OC)c(OC)c4)c23)c1 (stereo partly drawn) [Example 239, (E)-N-((R)-1-(3,4-dimethoxyphenyl)ethyl)-3-(4-(3-(ethylsulfinyl)phenyl)-1H-pyrrolo[2,3-b]pyridin-3-yl)acrylamide]
1 to 10 µM | ≤ 50 nM | COc1ccc([C@@H](C)NC(=O)/C=C/c2c[nH]c3ncc(-c4cccc(C(N)=O)c4)cc23)cc1OC [Example 189]

The next lines start with the compound.

SMILES | IC50 (GRK2) | IC50 (GRK5)
COc1ccc([C@@H](C)NC(=O)/C(C#N)=C/c2c[nH]c3ncc(C4=CCCCC4)cc23)cc1OC [Example 156, (R,E)-2-cyano-3-(5-(cyclohex-1-en-1-yl)-1H-pyrrolo[2,3-b]pyridin-3-yl)-N-(1-(3,4-dimethoxyphenyl)ethyl)acrylamide] | > 10 µM | 100 to 500 nM
COc1ccc([C@@H](C)NC(=O)/C(C#N)=C/c2c[nH]c3ncccc23)cc1 [Example 19, (R,E)-2-cyano-N-(1-(4-methoxyphenyl)ethyl)-3-(1H-pyrrolo[2,3-b]pyridin-3-yl)acrylamide] | 1 to 10 µM | 100 to 500 nM
C[C@@H](NC(=O)/C(C#N)=C/c1c[nH]c2ncccc12)c1cccc(F)c1 [Example 1, (R,E)-2-cyano-N-(1-(3-fluorophenyl)ethyl)-3-(1H-pyrrolo[2,3-b]pyridin-3-yl)acrylamide] | 0.1 to 0.5 µM | 100 to 500 nM
C[C@@H](NC(=O)/C(C#N)=C/c1c[nH]c2ncc(-c3cnn(C)c3)cc12)c1ccc(F)cc1 [Example 93, (R,E)-2-cyano-N-(1-(4-fluorophenyl)ethyl)-3-(5-(1-methyl-1H-pyrazol-4-yl)-1H-pyrrolo[2,3-b]pyridin-3-yl)acrylamide] | 0.1 to 0.5 µM | ≤ 50 nM
CS(=O)(=O)c1ccccc1CNC(=O)/C(C#N)=C/c1c[nH]c2ncccc12 [Example 39, (E)-2-cyano-N-(2-(methylsulfonyl)benzyl)-3-(1H-pyrrolo[2,3-b]pyridin-3-yl)acrylamide] | 1 to 10 µM | 100 to 500 nM
Cc1nn(C)c2ccc([C@@H](C)NC(=O)/C(C#N)=C/c3c[nH]c4ncc(-c5cnn(C)c5)cc34)cc12 [Example 262, (R,E)-2-cyano-N-(1-(1,3-dimethyl-1H-indazol-5-yl)ethyl)-3-(5-(1-methyl-1H-pyrazol-4-yl)-1H-pyrrolo[2,3-b]pyridin-3-yl)acrylamide] | > 10 µM | ≤ 50 nM
N#C/C(=C\c1c[nH]c2ncccc12)C(=O)NCc1ccc(C(F)(F)F)cc1 [Example 59, (E)-2-cyano-3-(1H-pyrrolo[2,3-b]pyridin-3-yl)-N-(4-(trifluoromethyl)benzyl)acrylamide] | 1 to 10 µM | 1000 to 10000 nM
COc1ccc([C@@H](C)NC(=O)/C(C#N)=C/c2c[nH]c3ncc(OC4CCOCC4)cc23)cc1OC [Example 111, (R,E)-2-cyano-N-(1-(3,4-dimethoxyphenyl)ethyl)-3-(5-((tetrahydro-2H-pyran-4-yl)oxy)-1H-pyrrolo[2,3-b]pyridin-3-yl)acrylamide] | 1 to 10 µM | ≤ 50 nM
O=C(/C=C/c1c[nH]c2nccc(Cl)c12)NCc1cccc(F)c1 [Example 8, (E)-3-(4-chloro-1H-pyrrolo[2,3-b]pyridin-3-yl)-N-(3-fluorobenzyl)acrylamide] | 0.5 to 1 µM | 1000 to 10000 nM
CN(C)CC(NC(=O)/C(C#N)=C/c1c[nH]c2ncccc12)c1ccccc1 (stereo not drawn) [Example 50, (E)-2-cyano-N-(2-(dimethylamino)-1-phenylethyl)-3-(1H-pyrrolo[2,3-b]pyridin-3-yl)acrylamide] | 0.1 to 0.5 µM | 100 to 500 nM
N#C/C(=C\c1c[nH]c2ncccc12)C(=O)NC(C#N)c1ccccc1 (stereo not drawn) [Example 49, (E)-2-cyano-N-(cyano(phenyl)methyl)-3-(1H-pyrrolo[2,3-b]pyridin-3-yl)acrylamide] | > 10 µM | 1000 to 10000 nM
COc1ccc([C@@H](C)NC(=O)/C(C#N)=C/c2c[nH]c3ncc(C#N)cc23)cc1OC [Example 86, (R,E)-2-cyano-3-(5-cyano-1H-pyrrolo[2,3-b]pyridin-3-yl)-N-(1-(3,4-dimethoxyphenyl)ethyl)acrylamide] | > 10 µM | 100 to 500 nM
COc1ccc([C@@H](C)NC(=O)/C=C/c2c[nH]c3nccc(-c4cccc(S(=O)(=O)N(C)C)c4)c23)cc1OC [Example 227, (R,E)-N-(1-(3,4-dimethoxyphenyl)ethyl)-3-(4-(3-(N,N-dimethylsulfamoyl)phenyl)-1H-pyrrolo[2,3-b]pyridin-3-yl)acrylamide] | 1 to 10 µM | 100 to 500 nM
COc1ccc([C@@H](C)NC(=O)/C(C#N)=C/c2c[nH]c3ncc(-c4cccc(N5CCN(C)CC5)c4)cc23)cc1OC [Example 122, (R,E)-2-cyano-N-(1-(3,4-dimethoxyphenyl)ethyl)-3-(5-(3-(4-methylpiperazin-1-yl)phenyl)-1H-pyrrolo[2,3-b]pyridin-3-yl)acrylamide] | > 10 µM | ≤ 50 nM
